In PubChem BioAssay (NCI):
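1) Cells in 96-well plates. 2) Compound, 48 h, 5 concentrations. 3) Linear interpolation between surrounding doses. 4) Unreached endpoint = highest concentration. At the TGI there is no net growth.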

What was measured:
Assay in all cases: NCI anticancer screen, dose series, 48 h
[1] = system: 786-0 renal
[2] = system: A498 renal
[3] = system: A549 NSCLC
[4] = system: ACHN renal
[5] = system: BT-549 breast
[6] = system: CAKI-1 renal
[7] = system: CCRF-CEM leukemia
[8] = system: COLO 205 colon
[9] = system: DU-145 prostate
[10] = system: EKVX NSCLC
[11] = system: HCC-2998 colon
[12] = system: HCT-116 colon
[13] = system: HCT-15 colon
[14] = system: HOP-62 NSCLC
[15] = system: HOP-92 NSCLC
[16] = system: HS 578T breast
[17] = system: HT29 colon
[18] = system: IGROV1 ovarian
[19] = system: K-562 leukemia
[20] = system: KM12 colon
[21] = system: LOX IMVI melanoma
[22] = system: M14 melanoma
[23] = system: MALME-3M melanoma
[24] = system: MCF7 breast
[25] = system: MDA-MB-231 breast
[26] = system: MDA-MB-435
[27] = system: MDA-N
[28] = system: MOLT-4 leukemia
[29] = system: NCI-H226 lung
[30] = system: NCI-H23 lung
[31] = system: NCI-H460 lung
[32] = system: NCI-H522 lung
[33] = system: NCI/ADR-RES ovarian
[34] = system: OVCAR-3 ovarian
[35] = system: OVCAR-4 ovarian
[36] = system: OVCAR-5 ovarian
[37] = system: OVCAR-8 ovarian
[38] = system: PC-3 prostate
[39] = system: RPMI-8226 leukemia
[40] = system: RXF 393 renal
[41] = system: SF-268 CNS
[42] = system: SF-295 CNS
[43] = system: SF-539 CNS
[44] = system: SK-MEL-2 melanoma
[45] = system: SK-MEL-28 melanoma
[46] = system: SK-MEL-5 melanoma
[47] = system: SK-OV-3 ovarian
[48] = system: SN12C renal
[49] = system: SNB-19 CNS
[50] = system: SNB-75 CNS
[51] = system: SW-620 colon
[52] = system: T-47D breast
[53] = system: TK-10 renal
[54] = system: U251 CNS
[55] = system: UACC-257 melanoma
[56] = system: UACC-62 melanoma
[57] = system: UO-31 renal

Measured: TGI

Cc1cn(CCCCCCC2=NCCCN2)c(=O)[nH]c1=O
> 100 µM: all assays above
